Measured values from EP0007206A1, “Phenethanolamines, their formulations, preparation and use” (ELI LILLY AND COMPANY, priority 1978, dated 1980).
Where a name gives a salt, the structure may show the parent alone.

Assays:
[1] = tested on: adenocarcinoma (CA 755 tumor); assay: combination chemotherapy with vindesine, implanted adenocarcinoma (Table 5); format: in vivo, mice; details: vindesine 0.6 mg./kg. i.p. days 1, 5, 9, 13, B 7.5 mg./kg. i.p. twice daily first 15 days
Procedure: (§1) In a typical experiment, laboratory mice were infected by a subcutaneous implantation of a tumor tissue in the axillary region of the body. The implantations were accomplished by means of a trocar. Initial tumor size in each animal generally was about 2 square millimeters. Tumor size was then measured periodically as length and width in mm. Typical tumor systems implanted included adenocarcinoma 755, an Aly Fast strain of bronchiogenic carcinoma, and mecca lymphosarcoma. Oncolytic agents utilized in the tests to determine the potentiating effects of the compounds of the invention.include cytoxan, 5-fluorouracil, vindesine, methotrexate and 6-mercaptopurine. Twenty or thirty infected animals generally were selected as controls and received placebo. Ten infected animals normally were selected to receive a known oncolytic agent. Another ten infected animals were administered the known oncolytic agent in addition to a compound of this invention.
The animals receiving combination chemotherapy were administered vindesine intraperitoneally according to the above-indicated dosage regimen, and N-(2-phenyl-2-hydroxyethyl)-1,1-dimethyl-3-(4-aminocarbonylphenyl)propylaminium chloride was administered intraperitoneally at the rate of 7.5 mg./kg. twice daily for the first 15 days of the test. Under column I of each of the indicated days of measurement is given the average tumor size in square millimeters for each test group. Column II under each of the indicated days of measurement provides the number of tumor free animals out of those still living on that particular day in each test group. […] In contrast, all of the control animals and those receiving vindesine alone had died by day 40, and none were tumor free after the thirteenth day of the test.

[2] = tested on: Chinese hamster ovary cells; assay: mitotic arrest assay (mitotic inhibitory activity); format: cell-based; details: 20.0 mcg/ml, five hours contact
Procedure: One such test, for example, was a determination of mitotic inhibitory activity. The compounds of this invention have the ability to arrest cultured cells at the mitotic phase (metaphase) of the cell cycle without apparent effect on other stages of the cell cycle. Such mitotic inhibitory activity is an indication that the compounds may have a beneficial effect on the biological activities of antineoplastic drugs. […] The compounds of the invention were administered at 20 mcg./ml. and the number of cells arrested at the mitotic phase out of 1000 cultured cells were counted and compared to the controls which underwent mitotic arrest without a drug present. Two evaluations were carried out for each test compound. The results reported are the percent of cells held at mitosis after five hours contact with the compound of this invention.

755 adenocarcinoma = assay: combination chemotherapy with cytoxan at varying doses, implanted 755 adenocarcinoma (Table 8); format: in vivo
Procedure: as §1
A similar study was carried out with cytoxan at varying doses and the combination of cytoxan and N-(2-phenyl-2-hydroxyethyl)-l,l-dimethyl-3-(4-aminocarbonylphenyl)propylaminium chloride. A group of ten animals infected with the 755 adenocarcinoma were given cytoxan intraperitoneally at the rate of 25 mg./kg. once per day on days 5, 9 and 13 of the test. Another group of infected animals received cytoxan at 12.5 mg./kg. once per day on days 5, 9 and 13. A third group of infected animals received the combination of cytoxan, given i.p. at 12.5 mg./kg. on days 5, 9 and 13, and the compound of this invention (compound B) given subcutaneously twice daily on days 5 through 14 at the dose of 7.5 mg./kg. As indicated by the data, all of the control animals and those receiving the oncolytic agent alone were dead after 73 days. In contrast, six of the ten animals which received combination chemotherapy were still living after 73 days of the test, and all of those still living were tumor free.

[3] = tested on: aly fast tumor strain of bronchiogenic carcinoma of the lung; assay: combination chemotherapy with cytoxan, implanted bronchiogenic carcinoma (Table 4); format: in vivo, hamsters; details: cytoxan 10 mg./kg. i.p. once daily, A 10 mg./kg. s.c. twice daily
Procedure: as §1
In a similar test, hamsters were infected with an aly fast tumor strain of bronchiogenic carcinoma of the lung. Cytoxan was administered to one group of infected animals at an intraperitoneal dose of 10 mg./kg. once daily. A compound of this invention, N-(2-phenyl-2-hydroxyethyl)-l,l-dimethyl-3-(4-hydroxyphenyl)propylaminium bromide (designated in Table 4 as A), caused a significant synergistic effect when co-administered with cytoxan. Cytoxan was administered i.p. once daily at 10 mg./kg. to the animals receiving the combination chemotherapy, and compound A was administered subcutaneously at the rate of 10 mg./kg. twice daily. It should be noted that the average tumor size for the animals receiving the combination of cytoxan and N-(2-phenyl-2-hydroxyethyl)-l,l-dimethyl-3-(4-hydroxyphenyl)-propylaminium bromide was only 20 square millimeters after the nineteenth day of treatment, while the average tumor size for the group receiving cytoxan was about the same as that for the animals receiving placebo, namely about 1340 square millimeters.

[4] = Day 5, cytoxan 12.5 mg./kg. i.p. days 5, 9, 13, B 7.5 mg./kg. s.c. twice daily days 5 through 14
[5] = Day 5, cytoxan 25 mg./kg. i.p. once per day on days 5, 9, 13
[6] = Day 12, cytoxan 12.5 mg./kg. i.p. days 5, 9, 13, B 7.5 mg./kg. s.c. twice daily days 5 through 14
[7] = Day 12, cytoxan 25 mg./kg. i.p. once per day on days 5, 9, 13
[8] = Day 17, cytoxan 12.5 mg./kg. i.p. days 5, 9, 13, B 7.5 mg./kg. s.c. twice daily days 5 through 14
[9] = Day 17, cytoxan 25 mg./kg. i.p. once per day on days 5, 9, 13
[10] = Day 23, cytoxan 12.5 mg./kg. i.p. days 5, 9, 13, B 7.5 mg./kg. s.c. twice daily days 5 through 14
[11] = Day 23, cytoxan 25 mg./kg. i.p. once per day on days 5, 9, 13
[12] = Day 29, cytoxan 12.5 mg./kg. i.p. days 5, 9, 13, B 7.5 mg./kg. s.c. twice daily days 5 through 14
[13] = Day 29, cytoxan 25 mg./kg. i.p. once per day on days 5, 9, 13

CCC1(O)CC2CN(CCc3c([nH]c4ccccc34)C(C(=O)OC)(c3cc4c(cc3OC)N(C)C3C(O)(C(N)=O)C(O)C5(CC)C=CCN6CCC43C65)C2)C1 (centres unmarked) [VDS, vindesine]
number of tumor free animals out of those still living ([1]; Day 0): 0/10
average tumor size ([1]; Day 8): 35 square millimeters
number of tumor free animals out of those still living ([1]; Day 8): 3/9
average tumor size ([1]; Day 13): 170 square millimeters
number of tumor free animals out of those still living ([1]; Day 13): 0/8
average tumor size ([1]; Day 19): 300 square millimeters
number of tumor free animals out of those still living ([1]; Day 19): 0/8
average tumor size ([1]; Day 26): 620 square millimeters
number of tumor free animals out of those still living ([1]; Day 26): 0/6
number of tumor free animals out of those still living ([1]; Day 40): 0/0

CN(C)C(=O)c1ccc(CCC(C)(C)NCC(O)c2ccccc2)cc1 (racemic) [N-(2-phenyl-2-hydroxyethyl)-1,1-dimethyl-3-(4-dimethylaminocarbonylphenyl)propylaminium oxalate]
Mitotic Index (percent of cells held at mitosis) ([2]; first of two evaluations): 40%
Mitotic Index (percent of cells held at mitosis) ([2]; second of two evaluations): 46%

CC(C)(CCc1ccc(O)cc1)NCC(O)c1ccccc1 (racemic) [N-(2-Phenyl-2-hydroxyethyl)-l,l-dimethyl-3-(4-hydroxyphenyl)propylamine]
Mitotic Index (percent of cells held at mitosis) ([2]; first of two evaluations): 36%
Mitotic Index (percent of cells held at mitosis) ([2]; second of two evaluations): 33%

CC(C)(CCc1ccc(C(N)=O)cc1)NCC(O)c1ccccc1 (centres unmarked) [N-(2-Phenyl-2-hydroxyethyl)-1,1-dimethyl-3-(4-aminocarbonylphenyl)propylamine]
Mitotic Index (percent of cells held at mitosis) ([2]; first of two evaluations): 57%
Mitotic Index (percent of cells held at mitosis) ([2]; second of two evaluations): 45%

CNC(=O)c1ccc(CCC(C)(C)NCC(O)c2ccccc2)cc1 (racemic) [N-(2-phenyl-2-hydroxyethyl)-l,l-dimethyl-3-(4-methylaminocarbonylphenyl)propylaminium chloride]
Mitotic Index (percent of cells held at mitosis) ([2]; first of two evaluations): 36%
Mitotic Index (percent of cells held at mitosis) ([2]; second of two evaluations): 38%

O=P1(N(CCCl)CCCl)NCCCO1 (centres unmarked) [Cytoxan, cytoxan]
number of tumor free animals out of those still living (755 adenocarcinoma; Day 0, cytoxan 12.5 mg./kg. i.p. days 5, 9, 13, B 7.5 mg./kg. s.c. twice daily days 5 through 14): 0/10
number of tumor free animals out of those still living (755 adenocarcinoma; Day 0, cytoxan 25 mg./kg. i.p. once per day on days 5, 9, 13): 0/10
average tumor size (755 adenocarcinoma; [4]): 130
number of tumor free animals out of those still living (755 adenocarcinoma; [4]): 0/10
average tumor size (755 adenocarcinoma; [5]): 80
number of tumor free animals out of those still living (755 adenocarcinoma; [5]): 0/10
average tumor size (755 adenocarcinoma; [6]): 190
number of tumor free animals out of those still living (755 adenocarcinoma; [6]): 0/10
average tumor size (755 adenocarcinoma; [7]): 60
number of tumor free animals out of those still living (755 adenocarcinoma; [7]): 1/10
average tumor size (755 adenocarcinoma; [8]): 300
number of tumor free animals out of those still living (755 adenocarcinoma; [8]): 0/10
average tumor size (755 adenocarcinoma; [9]): 60
number of tumor free animals out of those still living (755 adenocarcinoma; [9]): 4/10
average tumor size (755 adenocarcinoma; [10]): 600
number of tumor free animals out of those still living (755 adenocarcinoma; [10]): 1/9
average tumor size (755 adenocarcinoma; [11]): 200
number of tumor free animals out of those still living (755 adenocarcinoma; [11]): 2/9
average tumor size (755 adenocarcinoma; [12]): 800
number of tumor free animals out of those still living (755 adenocarcinoma; [12]): 0/4
average tumor size (755 adenocarcinoma; [13]): 570
number of tumor free animals out of those still living (755 adenocarcinoma; [13]): 0/4
number of tumor free animals out of those still living (755 adenocarcinoma; Day 73, cytoxan 12.5 mg./kg. i.p. days 5, 9, 13, B 7.5 mg./kg. s.c. twice daily days 5 through 14): 0/0
number of tumor free animals out of those still living (755 adenocarcinoma; Day 73, cytoxan 25 mg./kg. i.p. once per day on days 5, 9, 13): 0/0
number of surviving animals out of test group ([3]; Day 0): 10/10
average tumor size ([3]; Day 8): 560 square millimeters
number of surviving animals out of test group ([3]; Day 8): 10/10
average tumor size ([3]; Day 13): 950 square millimeters
number of surviving animals out of test group ([3]; Day 13): 9/10
average tumor size ([3]; Day 19): 1340 square millimeters
number of surviving animals out of test group ([3]; Day 19): 6/10
average tumor size ([3]; Day 19, listed as cytoxan): about 1340 square millimeters
